Experimental data taken from the NIST ThermoML archive (doi:10.1016/j.fluid.2014.07.038).
± gives the expanded uncertainty stated by the source.

Settings: Liquid; pulse heating to limit of superheat

Row | SMILES | Critical pressure [kPa] | Critical temperature [K]
1 | OCc1ccccc1 [benzenemethanol] | 4330 ± 200 | 713 ± 14
2 | CCCCCCCC/C=C\CCCCCCCC(=O)OC [methyl cis-9-octadecenoate] | 1210 ± 80 | 777 ± 16
3 | O=C(O)c1ccccc1 [benzoic acid] | 4530 ± 200 | 755 ± 16
4 | Cc1ccc(CO)cc1 [1-(hydroxymethyl)-4-methylbenzene] | 3610 ± 200 | 719 ± 14
5 | CCCCCCCCCCCCCCCC(=O)OC [methyl hexadecanoate] | 1170 ± 80 | 760 ± 16
6 | O=Cc1ccccc1C(=O)O [2-carboxybenzaldehyde] | 4800 ± 300 | 864 ± 18
7 | Cc1ccc(C=O)cc1 [4-methylbenzaldehyde] | 3800 ± 200 | 712 ± 14
8 | Cc1ccc(C(=O)O)cc1 [4-methylbenzoic acid] | 3800 ± 200 | 775 ± 16
9 | Cc1cccc(C(=O)O)c1 [3-methylbenzoic acid] | 3850 ± 240 | 771 ± 16
10 | O=Cc1ccccc1 [benzaldehyde] | 4410 ± 200 | 692 ± 14
11 | CCCCCCCCCCCCCCCCCC(=O)OC [methyl octadecanoate] | 1080 ± 60 | 785 ± 16
12 | CC(C)(CO)CO [2,2-dimethyl-1,3-propanediol] | 4200 ± 400 | 687 ± 20
13 | CCCCCCCCCCCCCC(=O)OC [methyl tetradecanoate] | 1320 ± 80 | 730 ± 14
14 | OCCCO [propan-1,3-diol] | 6380 ± 520 | 721 ± 22
15 | Cc1ccccc1C(=O)O [2-methylbenzoic acid] | 3920 ± 240 | 763 ± 16
